Assay results published in patent publication US20260130395A1, “Water Dispersible Botanical Compositions” (Aquila Black Limited, priority 2021, published 2026).

How the values were obtained:
[1] = Stability of cannabinoid compounds and Vitamin E components in Beverage 1 (AB White) by LCMSMS; type: physicochemical; details: AB White stored at 21-25° C.
[2] = Stability of cannabinoid entourage and Vitamin E components of the powder concentrate by LCMSMS; type: physicochemical; details: powder stored at 21-25° C.
Method: At each time period, 0.05 g of powder was dissolved in 10 ml-15 of ethanol, diluted to fall within the analytical range, and injected into the LCMSMS for analysis.

SMILES: CCCCCc1cc2c(c(O)c1C(=O)O)[C@@H]1C=C(C)CC[C@H]1C(C)(C)O2 [D9 THCA, delta-9-tetrahydrocannabinolic acid]
- Stability of Plant-Derived Cannabinoid Compounds in AB White, 21-25° C. ([1]; 29 days): 0.922 µg/mL
- Stability of Plant-Derived Cannabinoid Compounds in AB White, 21-25° C. ([1]; 30 days): 0.934 µg/mL
- Stability of Plant-Derived Cannabinoid Compounds in AB White, 21-25° C. ([1]; 60 days): 0.896 µg/mL
- Stability of Plant-Derived Cannabinoid Compounds in AB White, 21-25° C. ([1]; 90 days): 0.892 µg/mL
- Stability of Plant-Derived Cannabinoid Compounds in AB White, 21-25° C. ([1]; 120 days): 0.894 µg/mL
- Stability of Plant-Derived Cannabinoid Compounds in AB White, 21-25° C. ([1]; 150 days): 0.934 µg/mL
- Stability of Plant-Derived Cannabinoid Compounds in AB White, 21-25° C. ([1]; 180 days): 0.945 µg/mL
- Stability of Plant-Derived Cannabinoid Compounds in AB White, 21-25° C. ([1]; 210 days): 0.913 µg/mL
- Stability of Plant-Derived Cannabinoid Compounds in AB White, 21-25° C. ([1]; 240 days): 0.892 µg/mL
- Stability of Plant-Derived Cannabinoid Compounds in AB White, 21-25° C. ([1]; 270 days): 0.905 µg/mL
- Stability of Plant-Derived Cannabinoid Compounds in AB White, 21-25° C. ([1]; 300 days): 0.888 µg/mL
- Stability of Plant-Derived Cannabinoid Compounds in AB White, 21-25° C. ([1]; 330 days): 0.894 µg/mL
- Stability of Plant-Derived Cannabinoid Compounds in AB White, 21-25° C. ([1]; 360 days): 0.925 µg/mL
- Stability of Plant-Derived Cannabinoid Compounds in AB White, 21-25° C. ([1]; 390 days): 0.907 µg/mL
- Stability of Plant-Derived Cannabinoid Compounds in AB White, 21-25° C. ([1]; 420 days): 0.909 µg/mL
- Stability of Plant-Derived Cannabinoid Compounds in AB White, 21-25° C. ([1]; 450 days): 0.921 µg/mL
- Stability of Plant-Derived Cannabinoid Compounds in AB White, 21-25° C. ([1]; 480 days): 0.873 µg/mL
- Stability of Plant-Derived Cannabinoid Compounds in AB White, 21-25° C. ([1]; 510 days): 0.903 µg/mL
- Stability of Plant-Derived Cannabinoid Compounds in AB White, 21-25° C. ([1]; 540 days): 0.877 µg/mL
- Stability of Plant-Derived Cannabinoid Compounds in AB White, 21-25° C. ([1]; 570 days): 0.877 µg/mL
- Stability of Plant-Derived Cannabinoid Compounds in Powder Concentrate ([2]; 0 days): 0.150 mg/g powder
- Stability of Plant-Derived Cannabinoid Compounds in Powder Concentrate ([2]; 1 days): 0.150 mg/g powder
- Stability of Plant-Derived Cannabinoid Compounds in Powder Concentrate ([2]; 2 days): 0.147 mg/g powder
- Stability of Plant-Derived Cannabinoid Compounds in Powder Concentrate ([2]; 3 days): 0.150 mg/g powder
- Stability of Plant-Derived Cannabinoid Compounds in Powder Concentrate ([2]; 5 days): 0.146 mg/g powder
- Stability of Plant-Derived Cannabinoid Compounds in Powder Concentrate ([2]; 8 days): 0.156 mg/g powder
- Stability of Plant-Derived Cannabinoid Compounds in Powder Concentrate ([2]; 9 days): 0.151 mg/g powder
- Stability of Plant-Derived Cannabinoid Compounds in Powder Concentrate ([2]; 10 days): 0.148 mg/g powder
- Stability of Plant-Derived Cannabinoid Compounds in Powder Concentrate ([2]; 11 days): 0.145 mg/g powder
- Stability of Plant-Derived Cannabinoid Compounds in Powder Concentrate ([2]; 12 days): 0.152 mg/g powder
- Stability of Plant-Derived Cannabinoid Compounds in Powder Concentrate ([2]; 15 days): 0.151 mg/g powder
- Stability of Plant-Derived Cannabinoid Compounds in Powder Concentrate ([2]; 16 days): 0.157 mg/g powder
- Stability of Plant-Derived Cannabinoid Compounds in Powder Concentrate ([2]; 17 days): 0.156 mg/g powder
- Stability of Plant-Derived Cannabinoid Compounds in Powder Concentrate ([2]; 18 days): 0.149 mg/g powder
- Stability of Plant-Derived Cannabinoid Compounds in Powder Concentrate ([2]; 19 days): 0.146 mg/g powder
- Stability of Plant-Derived Cannabinoid Compounds in Powder Concentrate ([2]; 22 days): 0.150 mg/g powder
- Stability of Plant-Derived Cannabinoid Compounds in Powder Concentrate ([2]; 23 days): 0.147 mg/g powder
- Stability of Plant-Derived Cannabinoid Compounds in Powder Concentrate ([2]; 24 days): 0.150 mg/g powder
- Stability of Plant-Derived Cannabinoid Compounds in Powder Concentrate ([2]; 25 days): 0.150 mg/g powder
- Stability of Plant-Derived Cannabinoid Compounds in Powder Concentrate ([2]; 26 days): 0.150 mg/g powder
- Stability of Plant-Derived Cannabinoid Compounds in Powder Concentrate ([2]; 29 days): 0.152 mg/g powder
- Stability of Plant-Derived Cannabinoid Compounds in Powder Concentrate ([2]; 30 days): 0.151 mg/g powder
- Stability of Plant-Derived Cannabinoid Compounds in Powder Concentrate ([2]; 60 days): 0.146 mg/g powder
- Stability of Plant-Derived Cannabinoid Compounds in Powder Concentrate ([2]; 90 days): 0.147 mg/g powder
- Stability of Plant-Derived Cannabinoid Compounds in Powder Concentrate ([2]; 120 days): 0.147 mg/g powder
- Stability of Plant-Derived Cannabinoid Compounds in Powder Concentrate ([2]; 150 days): 0.153 mg/g powder
- Stability of Plant-Derived Cannabinoid Compounds in Powder Concentrate ([2]; 180 days): 0.154 mg/g powder
- Stability of Plant-Derived Cannabinoid Compounds in Powder Concentrate ([2]; 210 days): 0.151 mg/g powder
- Stability of Plant-Derived Cannabinoid Compounds in Powder Concentrate ([2]; 240 days): 0.148 mg/g powder
- Stability of Plant-Derived Cannabinoid Compounds in Powder Concentrate ([2]; 270 days): 0.148 mg/g powder
- Stability of Plant-Derived Cannabinoid Compounds in Powder Concentrate ([2]; 300 days): 0.156 mg/g powder
- Stability of Plant-Derived Cannabinoid Compounds in Powder Concentrate ([2]; 330 days): 0.156 mg/g powder
- Stability of Plant-Derived Cannabinoid Compounds in Powder Concentrate ([2]; 360 days): 0.155 mg/g powder
- Stability of Plant-Derived Cannabinoid Compounds in Powder Concentrate ([2]; 390 days): 0.153 mg/g powder
- Stability of Plant-Derived Cannabinoid Compounds in Powder Concentrate ([2]; 420 days): 0.154 mg/g powder
- Stability of Plant-Derived Cannabinoid Compounds in Powder Concentrate ([2]; 450 days): 0.155 mg/g powder
- Stability of Plant-Derived Cannabinoid Compounds in Powder Concentrate ([2]; 480 days): 0.149 mg/g powder
- Stability of Plant-Derived Cannabinoid Compounds in Powder Concentrate ([2]; 510 days): 0.154 mg/g powder
- Stability of Plant-Derived Cannabinoid Compounds in Powder Concentrate ([2]; 540 days): 0.154 mg/g powder
- Stability of Plant-Derived Cannabinoid Compounds in Powder Concentrate ([2]; 570 days): 0.148 mg/g powder
